This is an account of results in ChEMBL document CHEMBL2074088, “Trans-stimulation effects of folic acid derivatives on methotrexate transport by rat renal organic anion transporter, OAT-K1” (J Pharmacol Exp Ther, 2000).

This assay concerns the target T1, Solute carrier organic anion transporter family member 1A3 (Rattus norvegicus, UniProt P70502).
T1 sequence (P70502 whole entry): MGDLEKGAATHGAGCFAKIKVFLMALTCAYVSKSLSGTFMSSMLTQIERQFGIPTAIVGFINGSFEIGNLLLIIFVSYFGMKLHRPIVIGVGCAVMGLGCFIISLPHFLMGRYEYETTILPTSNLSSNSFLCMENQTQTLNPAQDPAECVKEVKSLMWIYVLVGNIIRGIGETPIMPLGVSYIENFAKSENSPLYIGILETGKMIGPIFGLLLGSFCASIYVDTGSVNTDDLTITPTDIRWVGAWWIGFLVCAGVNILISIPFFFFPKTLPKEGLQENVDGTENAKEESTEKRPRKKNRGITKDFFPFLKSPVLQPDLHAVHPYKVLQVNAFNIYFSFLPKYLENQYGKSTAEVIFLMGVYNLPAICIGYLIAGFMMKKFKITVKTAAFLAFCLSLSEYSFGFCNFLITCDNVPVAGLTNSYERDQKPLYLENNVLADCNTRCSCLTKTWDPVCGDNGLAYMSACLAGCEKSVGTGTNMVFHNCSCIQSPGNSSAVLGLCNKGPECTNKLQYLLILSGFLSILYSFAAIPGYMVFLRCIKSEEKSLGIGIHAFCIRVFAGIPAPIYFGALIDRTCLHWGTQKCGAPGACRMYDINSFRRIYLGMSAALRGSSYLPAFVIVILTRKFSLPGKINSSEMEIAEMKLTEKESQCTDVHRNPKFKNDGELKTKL
Description: TP_TRANSPORTER: inhibition of MTX uptake in OAT-K1-expressing MDCK cells. Format: functional, cell-based.
One may read the Ki as a dissociation constant, usually derived from enzyme kinetics or from competition with a known ligand. Read a low Ki as higher affinity. Take `Nc1nc(N)c2nc(CNc3ccc(C(=O)N[C@@H](CCC(=O)O)C(=O)O)cc3)cnc2n1` [AMINOPTERIN]: affinity was put at a Ki of 0.5 µM.

Take `Nc1nc2ncc(CNc3ccc(C(=O)N[C@@H](CCC(=O)O)C(=O)O)cc3)nc2c(=O)[nH]1` [FOLIC ACID]: the Ki worked out at 14.1 µM.

As for `Nc1nc2c(c(=O)[nH]1)N(C=O)C(CNc1ccc(C(=O)N[C@@H](CCC(=O)O)C(=O)O)cc1)CN2` (stereo not given in full) [LEUCOVORIN], the inhibition constant Ki is 8.2 µM.

Molecule `CN1c2c(nc(N)[nH]c2=O)NC[C@@H]1CNc1ccc(C(=O)N[C@@H](CCC(=O)O)C(=O)O)cc1` [LEVOMEFOLIC ACID] yielded a Ki of 1.2 µM.

The molecule `O=C1OC(c2ccc(O)c(S(=O)(=O)O)c2)(c2ccc(O)c(S(=O)(=O)O)c2)c2c(Br)c(Br)c(Br)c(Br)c21` [SULFOBROMOPHTHALEIN SODIUM] gave an inhibitory constant (Ki) of 21 µM.
